Values belong to the compound of their own block, whether it stands above or below them. Active and inactive are the calls of the source. The rule behind the calls is not given here.
Legend:
Histamine H3 receptor [1] = target: T1, Histamine H3 receptor (Homo sapiens, UniProt Q9Y5N1); assay: Displacement of [125I]-iodoproxyfan from human recombinant histamine H3 receptor expressed in human SK-N-MC cells after 1 hr by scintillation counting; assay type: cell-based
Histamine H3 receptor [2] = target: T1, Histamine H3 receptor; assay: Antagonist activity at human histamine H3 receptor expressed in human SK-N-MC cells assessed as inhibition of forskolin-induced cAMP accumulation after 6 hrs; assay type: functional, cell-based; conditions: read-out: pA2 (converted)
Histamine H3 receptor [3] = target: T2, Histamine H3 receptor (Rattus norvegicus, UniProt Q9QYN8); assay: Antagonist activity at rat histamine H3 receptor expressed in human SK-N-MC cells assessed as inhibition of forskolin-induced cAMP accumulation after 6 hrs; assay type: functional, cell-based; conditions: read-out: pA2 (converted)
[4] = Metabolic stability in rat liver microsomes assessed as compound remaining after 30 mins; assay type: ADME, Microsome; conditions: read-out: Stability
[5] = Metabolic stability in human liver microsomes assessed as compound remaining after 30 mins; assay type: ADME, Microsome; conditions: read-out: Stability
[6] = Drug level in Wistar rat brain at 10 mg/kg, po after 1 hr; assay type: ADME, organism-based; set-up: dose 10 mg/kg, route oral; conditions: read-out: Drug uptake
[7] = Plasma concentration in Wistar rat at 10 mg/kg, po after 1 hr; assay type: ADME, organism-based; set-up: dose 10 mg/kg, route oral; conditions: read-out: Drug uptake
Histamine H3 receptor [8] = target: T2, Histamine H3 receptor; assay: Binding affinity to histamine H3 receptor in rat brain; assay type: tissue-based
Rattus norvegicus [9] = assay: Ex vivo receptor occupancy of histamine H3 receptor in Wistar rat brain at 10 mg/kg, po after 1 hr by autoradiography; assay type: functional
[10] = Clearance in Sprague-Dawley rat at 1 mg/kg, iv and 10 mg/kg, po; assay type: ADME, organism-based; conditions: in vivo
[11] = Volume of distribution at steady state in Sprague-Dawley rat at 1 mg/kg, iv and 10 mg/kg, po; assay type: ADME, organism-based; conditions: in vivo, read-out: Vdss
[12] = Half life in Sprague-Dawley rat at 1 mg/kg, iv and 10 mg/kg, po; assay type: ADME, organism-based; conditions: in vivo
[13] = Bioavailability in Sprague-Dawley rat at 1 mg/kg, iv and 10 mg/kg, po; assay type: ADME, organism-based; conditions: in vivo
[14] = target: T3, Voltage-gated inwardly rectifying potassium channel KCNH2 (Homo sapiens, UniProt Q12809); assay: Displacement of radiolabeled astemizole from human ERG
hERG (KCNH2) = hERG (KCNH2) (Homo sapiens, UniProt Q12809); assay: Displacement of radiolabeled astemizole from human ERG at 10 uM; conditions: probe radiolabeled astemizole
[15] = target: T3, Voltage-gated inwardly rectifying potassium channel KCNH2; assay: Inhibition of human ERG by patch clamp technique
[16] = Clearance in Beagle dog at 1 mg/kg, iv and 5 mg/kg, po; assay type: ADME, organism-based, Canis lupus familiaris; conditions: in vivo
[17] = Volume of distribution at steady state in Beagle dog at 1 mg/kg, iv and 5 mg/kg, po; assay type: ADME, organism-based, Canis lupus familiaris; conditions: in vivo, read-out: Vdss
[18] = Half life in Beagle dog at 1 mg/kg, iv and 5 mg/kg, po; assay type: ADME, organism-based, Canis lupus familiaris; conditions: in vivo
[19] = Bioavailability in Beagle dog at 1 mg/kg, iv and 5 mg/kg, po; assay type: ADME, organism-based, Canis lupus familiaris; conditions: in vivo
[20] = Clearance in BALB/c mouse at 1 mg/kg, iv and 10 mg/kg, po; assay type: ADME, organism-based; conditions: in vivo
[21] = Volume of distribution at steady state in BALB/c mouse at 1 mg/kg, iv and 10 mg/kg, po; assay type: ADME, organism-based; conditions: in vivo, read-out: Vdss
[22] = Half life in BALB/c mouse at 1 mg/kg, iv and 10 mg/kg, po; assay type: ADME, organism-based; conditions: in vivo
[23] = Bioavailability in BALB/c mouse at 1 mg/kg, iv and 10 mg/kg, po; assay type: ADME, organism-based; conditions: in vivo
[24] = Permeability from apical to basolateral side of human Caco-2 cells; assay type: ADME, cell-based; conditions: read-out: permeability
[25] = Permeability from basolateral to apical side of human Caco-2 cells; assay type: ADME, cell-based; conditions: read-out: permeability
[26] = Solubility in simulated gastric fluid; assay type: physicochemical
[27] = Solubility in water; assay type: physicochemical
Cytochrome P450 3A4 = Cytochrome P450 3A4 (Homo sapiens, UniProt P08684); assay: Inhibition of CYP3A4 at 10 uM; assay type: ADME
Cytochrome P450 2D6 = Cytochrome P450 2D6 (Homo sapiens, UniProt P10635); assay: Inhibition of CYP2D6 at 10 uM; assay type: ADME
Cytochrome P450 2C9 = Cytochrome P450 2C9 (Homo sapiens, UniProt P11712); assay: Inhibition of CYP2C9 at 10 uM; assay type: ADME
Rattus norvegicus [28] = assay: Ex vivo receptor occupancy of histamine H3 receptor in Wistar rat brain at 1 mg/kg, po after 60 mins by [3H]R-alpha-methylhistamine bingind autoradiography; assay type: functional
[29] = Plasma concentration in Wistar rat at 1 mg/kg, po after 60 mins; assay type: ADME, organism-based; set-up: dose 1 mg/kg, route oral; conditions: read-out: Drug uptake
[30] = Fraction unbound in rat plasma; assay type: ADME, cell-free
Rattus norvegicus [31] = assay: Increase of histamine release in rat frontal cortex at 3 to 30 mg/kg, po measured up to 180 mins; assay type: functional, organism-based
Rattus norvegicus [32] = assay: Increase of wake duration in rat at 30 mg/kg, s.c.

T2 sequence (Q9QYN8 whole entry): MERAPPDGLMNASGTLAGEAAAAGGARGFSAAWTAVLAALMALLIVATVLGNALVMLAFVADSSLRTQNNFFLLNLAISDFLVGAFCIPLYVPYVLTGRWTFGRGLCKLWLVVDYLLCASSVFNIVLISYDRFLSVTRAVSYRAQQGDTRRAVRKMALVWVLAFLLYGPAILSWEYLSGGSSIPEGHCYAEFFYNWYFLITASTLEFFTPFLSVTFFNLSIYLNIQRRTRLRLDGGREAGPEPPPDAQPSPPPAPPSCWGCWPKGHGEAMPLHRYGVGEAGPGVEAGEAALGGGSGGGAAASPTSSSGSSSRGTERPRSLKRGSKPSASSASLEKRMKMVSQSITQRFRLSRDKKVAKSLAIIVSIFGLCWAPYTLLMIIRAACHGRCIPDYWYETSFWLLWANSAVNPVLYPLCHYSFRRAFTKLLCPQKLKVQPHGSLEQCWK
T1 sequence (Q9Y5N1 whole entry): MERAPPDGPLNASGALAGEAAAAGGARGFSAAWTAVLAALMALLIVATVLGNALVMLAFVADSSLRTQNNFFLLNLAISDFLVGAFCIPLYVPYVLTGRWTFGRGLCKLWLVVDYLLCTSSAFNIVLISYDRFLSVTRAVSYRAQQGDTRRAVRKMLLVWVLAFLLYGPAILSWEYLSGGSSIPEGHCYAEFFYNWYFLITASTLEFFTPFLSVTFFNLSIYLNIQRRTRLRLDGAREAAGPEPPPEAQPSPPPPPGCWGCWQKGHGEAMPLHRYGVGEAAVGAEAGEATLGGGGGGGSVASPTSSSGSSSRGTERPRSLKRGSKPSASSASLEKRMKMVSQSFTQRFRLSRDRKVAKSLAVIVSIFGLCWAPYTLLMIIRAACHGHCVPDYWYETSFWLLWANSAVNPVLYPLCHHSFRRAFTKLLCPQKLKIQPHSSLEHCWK
T3 sequence (Q12809 whole entry): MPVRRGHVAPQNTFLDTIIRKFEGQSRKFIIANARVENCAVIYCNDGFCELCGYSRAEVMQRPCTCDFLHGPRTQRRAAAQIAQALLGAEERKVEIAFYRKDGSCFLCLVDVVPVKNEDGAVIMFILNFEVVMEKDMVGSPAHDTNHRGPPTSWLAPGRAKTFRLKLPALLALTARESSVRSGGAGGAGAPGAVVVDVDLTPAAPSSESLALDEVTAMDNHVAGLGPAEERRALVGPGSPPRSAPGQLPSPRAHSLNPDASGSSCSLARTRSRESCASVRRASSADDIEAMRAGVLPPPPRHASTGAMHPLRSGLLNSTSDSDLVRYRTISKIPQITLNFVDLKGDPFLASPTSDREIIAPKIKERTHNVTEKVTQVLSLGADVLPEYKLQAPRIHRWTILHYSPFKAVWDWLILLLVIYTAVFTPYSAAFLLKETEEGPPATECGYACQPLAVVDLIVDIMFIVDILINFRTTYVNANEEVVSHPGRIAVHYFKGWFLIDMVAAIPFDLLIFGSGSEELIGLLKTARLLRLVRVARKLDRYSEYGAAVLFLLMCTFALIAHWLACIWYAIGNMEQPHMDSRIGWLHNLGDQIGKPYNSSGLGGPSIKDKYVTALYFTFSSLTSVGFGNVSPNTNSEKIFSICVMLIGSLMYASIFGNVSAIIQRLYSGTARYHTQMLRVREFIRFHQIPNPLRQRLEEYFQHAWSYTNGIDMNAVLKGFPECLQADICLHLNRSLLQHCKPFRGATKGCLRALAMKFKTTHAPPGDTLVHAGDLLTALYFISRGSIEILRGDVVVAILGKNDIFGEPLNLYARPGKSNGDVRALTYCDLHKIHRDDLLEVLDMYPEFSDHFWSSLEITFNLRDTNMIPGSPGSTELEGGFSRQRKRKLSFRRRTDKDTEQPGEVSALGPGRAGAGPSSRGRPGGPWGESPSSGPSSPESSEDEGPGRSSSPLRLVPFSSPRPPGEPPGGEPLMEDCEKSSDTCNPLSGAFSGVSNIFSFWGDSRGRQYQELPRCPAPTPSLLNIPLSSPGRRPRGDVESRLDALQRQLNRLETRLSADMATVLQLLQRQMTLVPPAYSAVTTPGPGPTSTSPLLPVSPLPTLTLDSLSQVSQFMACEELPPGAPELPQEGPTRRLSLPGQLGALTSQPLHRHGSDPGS
Sequence of hERG (KCNH2) (Q12809 whole entry): as above
Sequence of Cytochrome P450 2C9 (P11712 whole entry): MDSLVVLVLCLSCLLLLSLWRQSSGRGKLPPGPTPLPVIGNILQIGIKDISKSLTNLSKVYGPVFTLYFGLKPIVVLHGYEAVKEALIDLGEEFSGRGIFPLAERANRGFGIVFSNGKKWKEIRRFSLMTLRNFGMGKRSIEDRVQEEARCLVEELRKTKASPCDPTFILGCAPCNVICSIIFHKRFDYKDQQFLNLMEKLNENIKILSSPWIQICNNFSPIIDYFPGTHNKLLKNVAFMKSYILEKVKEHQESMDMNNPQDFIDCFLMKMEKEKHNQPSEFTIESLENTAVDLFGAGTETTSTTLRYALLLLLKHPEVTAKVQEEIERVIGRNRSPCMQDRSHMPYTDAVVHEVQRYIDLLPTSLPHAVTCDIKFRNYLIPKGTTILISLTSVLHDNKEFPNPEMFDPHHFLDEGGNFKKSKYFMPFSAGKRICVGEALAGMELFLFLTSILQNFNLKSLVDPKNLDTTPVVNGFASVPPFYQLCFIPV
Sequence of Cytochrome P450 2D6 (P10635 whole entry): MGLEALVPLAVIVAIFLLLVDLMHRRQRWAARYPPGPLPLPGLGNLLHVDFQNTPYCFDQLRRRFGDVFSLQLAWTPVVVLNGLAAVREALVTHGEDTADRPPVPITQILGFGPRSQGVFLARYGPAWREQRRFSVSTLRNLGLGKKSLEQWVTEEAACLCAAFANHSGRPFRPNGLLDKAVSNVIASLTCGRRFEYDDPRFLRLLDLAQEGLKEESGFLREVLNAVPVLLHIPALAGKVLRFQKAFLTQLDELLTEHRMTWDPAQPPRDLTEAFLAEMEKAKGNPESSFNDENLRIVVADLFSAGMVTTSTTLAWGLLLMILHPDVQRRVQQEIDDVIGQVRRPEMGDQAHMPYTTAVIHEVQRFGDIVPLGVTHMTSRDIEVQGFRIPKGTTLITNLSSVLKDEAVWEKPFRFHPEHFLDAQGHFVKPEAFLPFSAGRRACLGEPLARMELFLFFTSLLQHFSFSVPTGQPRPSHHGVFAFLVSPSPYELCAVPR
Sequence of Cytochrome P450 3A4 (P08684 whole entry): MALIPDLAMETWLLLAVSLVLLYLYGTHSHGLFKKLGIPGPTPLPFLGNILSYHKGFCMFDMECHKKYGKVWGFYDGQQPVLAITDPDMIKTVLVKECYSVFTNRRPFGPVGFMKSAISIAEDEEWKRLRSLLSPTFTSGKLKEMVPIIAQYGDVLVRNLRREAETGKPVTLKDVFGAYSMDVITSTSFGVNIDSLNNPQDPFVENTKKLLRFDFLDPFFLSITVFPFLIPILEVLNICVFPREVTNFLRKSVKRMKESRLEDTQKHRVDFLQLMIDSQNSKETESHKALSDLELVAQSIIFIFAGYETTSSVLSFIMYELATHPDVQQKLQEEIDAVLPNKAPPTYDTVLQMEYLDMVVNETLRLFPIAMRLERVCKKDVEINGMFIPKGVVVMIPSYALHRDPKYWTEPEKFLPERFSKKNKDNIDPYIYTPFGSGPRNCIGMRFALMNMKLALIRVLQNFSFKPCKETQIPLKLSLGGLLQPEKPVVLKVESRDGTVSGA

SMILES: O=C(c1ccc(Oc2ccccc2)nc1)N1CCCN(C2CCC2)CC1
Ki (Histamine H3 receptor [1]): 4.4 nM
Kb (Histamine H3 receptor [2]): 0.269 nM
Kb (Histamine H3 receptor [3]): 3.72 nM
remaining at 0.5 h [4]: 90%
remaining at 0.5 h [5]: 99%
concentration at 1 h [6]: 300 nM
concentration at 1 h [7]: 210 nM
Ki (Histamine H3 receptor [8]): 15 nM

SMILES: CC(C)N1CCCN(C(=O)c2cccc(Oc3ccc(Cl)c(Cl)c3)n2)CC1
Ki (Histamine H3 receptor [1]): 430 nM

SMILES: O=C(c1ccc(Sc2ccccc2)cn1)N1CCCN(C2CCC2)CC1
Ki (Histamine H3 receptor [1]): 3.7 nM

SMILES: O=C(c1ccc(Oc2ccc(F)cc2)nc1)N1CCCNCC1
Ki (Histamine H3 receptor [1]): 9000 nM

SMILES: CC(C)N1CCN(C(=O)c2ccc(Oc3ccc(F)cc3)nc2)CC1
Ki (Histamine H3 receptor [1]): 79 nM

SMILES: O=C(c1ccc(Oc2cccc(F)c2)nc1)N1CCCN(C2CCC2)CC1
Ki (Histamine H3 receptor [1]): 4.1 nM
remaining at 0.5 h [4]: 86%
remaining at 0.5 h [5]: 99%
Activity (Rattus norvegicus [9]): 88%
concentration at 1 h [6]: 1960 nM
concentration at 1 h [7]: 360 nM
clearance [10]: 118 mL/min/kg
Vd [11]: 4.2 L/kg
half-life [12]: 48 min
bioavailability [13]: 11%
IC50 [14]: > 10000 nM
inhibition at 10 µM (hERG (KCNH2)): 0%
IC50 [15]: 5400 nM

SMILES: O=C(c1ccc(Oc2ccc(Cl)cc2)nc1)N1CCCN(C2CC2)CC1
Ki (Histamine H3 receptor [1]): 13 nM

SMILES: CC(C)N1CCN(C(=O)c2ccc(Oc3cccc(C#N)c3)nc2)CC1
Ki (Histamine H3 receptor [1]): 110 nM

SMILES: O=C(c1ccc(Oc2ccccc2)nc1)N1CCCN(C2CC2)CC1
Ki (Histamine H3 receptor [1]): 10 nM

SMILES: O=C(c1ccc(Oc2ccc(Cl)c(Cl)c2)nc1)N1CCCN(C2CCC2)CC1
Ki (Histamine H3 receptor [1]): 7.6 nM
remaining at 0.5 h [4]: 4%
remaining at 0.5 h [5]: 30%
Activity (Rattus norvegicus [9]): 100%
concentration at 1 h [6]: 4790 nM
concentration at 1 h [7]: 1520 nM

SMILES: N#Cc1cccc(Oc2ccc(C(=O)N3CCCN(C4CCC4)CC3)cn2)c1
Ki (Histamine H3 receptor [1]): 1.8 nM
Kb (Histamine H3 receptor [2]): 0.407 nM
Kb (Histamine H3 receptor [3]): 9.55 nM
remaining at 0.5 h [4]: 87%
remaining at 0.5 h [5]: 99%
Activity (Rattus norvegicus [9]): 87%
concentration at 1 h [6]: 960 nM
concentration at 1 h [7]: 6020 nM
Ki (Histamine H3 receptor [8]): 11 nM
clearance [10]: 41 mL/min/kg
Vd [11]: 1.4 L/kg
half-life [12]: 42 min
bioavailability [13]: 89%
clearance [16]: 21 mL/min/kg
Vd [17]: 1.6 L/kg
half-life [18]: 54 min
bioavailability [19]: 29%
clearance [20]: 97 mL/min/kg
Vd [21]: 4.4 L/kg
half-life [22]: 48 min
bioavailability [23]: 21%
IC50 [14]: > 10000 nM
inhibition at 10 µM (hERG (KCNH2)): 23%
IC50 [15]: > 10000 nM
Papp A→B [24]: 77 ×10⁻⁶ cm/s
Papp B→A [25]: 25 ×10⁻⁶ cm/s
solubility [26]: > 1 mg/mL
solubility [27]: > 100 mg/mL
Activity (Cytochrome P450 3A4): Not Active
Activity (Cytochrome P450 2D6): Not Active
Activity (Cytochrome P450 2C9): Not Active
Activity (Rattus norvegicus [28]): 90%
concentration at 1 h [29]: 160 ng/mL
fraction unbound [30]: 0.79
Activity (Rattus norvegicus [31]): Active
Activity (Rattus norvegicus [32]): Active

Further compounds by falling Ki (Histamine H3 receptor [1]), results first:

Ki (Histamine H3 receptor [1]): 1040 nM
SMILES: O=C(c1cccc(Oc2ccc(Cl)c(Cl)c2)n1)N1CCCN(C2CC2)CC1

Ki (Histamine H3 receptor [1]): 230 nM
SMILES: CSc1ccc(Oc2ccc(C(=O)N3CCN(C(C)C)CC3)cn2)cc1

Ki (Histamine H3 receptor [1]): 100 nM
SMILES: CC(C)N1CCN(C(=O)c2ccc(Oc3cccc(Cl)c3)nc2)CC1

Ki (Histamine H3 receptor [1]): 78 nM
SMILES: CC(C)N1CCN(C(=O)c2ccc(Oc3ccc(Cl)c(Cl)c3)nc2)CC1

Ki (Histamine H3 receptor [1]): 41 nM
SMILES: O=C(c1cc(Oc2ccccc2)ccn1)N1CCCN(C2CCC2)CC1

Ki (Histamine H3 receptor [1]): 25 nM
Kb (Histamine H3 receptor [2]): 1.58 nM
SMILES: O=C(c1ccc(Oc2ccc(F)cc2)nc1)N1CCCN(C2CC2)CC1

Ki (Histamine H3 receptor [1]): 17 nM
SMILES: O=C(c1ccc(Oc2ccccc2Cl)nc1)N1CCCN(C2CCC2)CC1

Ki (Histamine H3 receptor [1]): 17 nM
SMILES: O=C(c1cncc(Oc2ccc(F)cc2)c1)N1CCCN(C2CCC2)CC1

Ki (Histamine H3 receptor [1]): 17 nM
Kb (Histamine H3 receptor [3]): 11.5 nM
remaining at 0.5 h [4]: 41%
remaining at 0.5 h [5]: 70%
concentration at 1 h [6]: 300 nM
concentration at 1 h [7]: 310 nM
Ki (Histamine H3 receptor [8]): 75 nM
SMILES: O=C(c1ccc(Oc2cccc(Cl)c2)nc1)N1CCCN(C2CC2)CC1

Ki (Histamine H3 receptor [1]): 12 nM
SMILES: N#Cc1cccc(Oc2ccc(C(=O)N3CCCN(C4CC4)CC3)cn2)c1

Ki (Histamine H3 receptor [1]): 4.6 nM
remaining at 0.5 h [4]: 7%
remaining at 0.5 h [5]: 82%
concentration at 1 h [6]: 120 nM
concentration at 1 h [7]: 30 nM
SMILES: O=C(c1ccc(Sc2ccc(F)cc2)cn1)N1CCCN(C2CCC2)CC1

Ki (Histamine H3 receptor [1]): 2.3 nM
SMILES: O=C(c1ccc(Sc2ccccc2)nc1)N1CCCN(C2CCC2)CC1

Source: ChEMBL document CHEMBL1177792, “Pre-clinical characterization of aryloxypyridine amides as histamine H3 receptor antagonists: identification of candidates for clinical development” (Bioorg Med Chem Lett, 2010)
